Laboratory results from patent US20120156615A1, “CYCLIC COMPOUND, PROCESS FOR PRODUCTION OF THE CYCLIC COMPOUND, RADIATION-SENSITIVE COMPOSITION, AND METHOD FOR FORMATION OF RESIST PATTERN” (MITSUBISHI GAS CHEMICAL COMPANY, INC., priority 2009, published 2012).

Experiment: Solubility of compound in safety solvent
Format: physicochemical
Conditions: for solubility in CHN (dissolved amount): solvent cyclohexanone (CHN); for solubility in PGME (dissolved amount): solvent propylene glycol monomethyl ether (PGME)
Protocol: (1) Solubility of Compound in Safety Solvent
The compounds obtained in Synthesis Examples 1 to 6 and Synthesis 1 to 4 were evaluated for the solubility in propylene glycol monomethyl ether (PGME) and cyclohexanone (CHN).
A: 20.0 wt %≦dissolved amount
B: 1.0 wt %≦dissolved amount<20.0 wt %
C: dissolved amount<1.0 wt %

Compound | solubility in CHN (dissolved amount) | solubility in PGME (dissolved amount)
CC(C)c1ccc(C2c3cc(c(O)cc3O)C(c3ccc(C(C)C)cc3)c3cc(c(O)cc3O)C(c3ccc(C(C)C)cc3)c3cc(c(O)cc3O)C(c3ccc(C(C)C)cc3)c3cc2c(O)cc3O)cc1 (stereo not shown) [CR-1A] | B (1.0 wt %≦dissolved amount<20.0 wt %) | B (1.0 wt %≦dissolved amount<20.0 wt %)
Oc1cc(O)c2cc1C(c1ccc(C3CCCCC3)cc1)c1cc(c(O)cc1O)C(c1ccc(C3CCCCC3)cc1)c1cc(c(O)cc1O)C(c1ccc(C3CCCCC3)cc1)c1cc(c(O)cc1O)C2c1ccc(C2CCCCC2)cc1 (stereo not shown) [CR-4A] | B (1.0 wt %≦dissolved amount<20.0 wt %) | B (1.0 wt %≦dissolved amount<20.0 wt %)
